We go through 36 compounds from patent US20090036448A1, “PYRIMIDINE DERIVATIVES AND METHODS OF TREATMENT RELATED TO THE USE THEREOF” (TAISHO PHARMECUTICAL CO., LTD., priority 2004, published 2009).

This assay concerns the target MCH receptor (Homo sapiens, UniProt Q99705). The experiment in a line: Receptor binding assay with Radiolabelled MCH Ligand. The following applies: class by percent of control at 10^-7 M or IC50. On the set-up: expressed in transfected cells; host or cells: 293 cells (human kidney, ATCC), transient transfection; crude membranes. Summed up:
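This was a filtration radioligand displacement assay: compounds, first tested at 1 and 0.1 μM and then over a range, inhibited binding of a labelled MCH ligand to transfected 293-cell membranes at room temperature for 60–120 min. Specific binding excluded a cold-MCH nonspecific signal. Ki was derived from IC50 via Cheng-Prusoff, using an independently measured KD.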

Molecules are shown by their SMILES.

MCH receptor, sequence (Q99705 whole entry): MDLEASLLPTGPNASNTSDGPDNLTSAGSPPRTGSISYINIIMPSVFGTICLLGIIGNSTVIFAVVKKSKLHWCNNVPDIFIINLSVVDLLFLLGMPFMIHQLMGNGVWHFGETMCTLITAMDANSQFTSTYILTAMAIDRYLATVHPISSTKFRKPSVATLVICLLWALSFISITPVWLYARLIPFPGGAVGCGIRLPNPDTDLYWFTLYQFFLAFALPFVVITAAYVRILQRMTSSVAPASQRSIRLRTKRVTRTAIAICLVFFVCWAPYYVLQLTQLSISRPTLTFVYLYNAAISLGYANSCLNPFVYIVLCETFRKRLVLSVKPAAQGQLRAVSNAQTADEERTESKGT

As to `Cc1nc(N[C@H]2CC[C@@H](NC(=O)Cc3ccccc3C(=O)Nc3ccc(F)cc3F)CC2)cc(N(C)C)n1` [compound 294], the class was 3 (Class 3: The value of percent of control at 10^−7 M was more than 60% or the value of IC50 was more than 200 nM.).
Then `Cc1nc(N[C@H]2CC[C@@H](NC(=O)c3ccccc3C(=O)Nc3cccc4ccccc34)CC2)cc(N(C)C)n1` [compound 332], with 3 (Class 3: The value of percent of control at 10^−7 M was more than 60% or the value of IC50 was more than 200 nM.); and `CSc1ncccc1C(=O)N[C@H]1CC[C@@H](Nc2cc(N(C)C)nc(C)n2)CC1` [compound 226], with 3 (Class 3: The value of percent of control at 10^−7 M was more than 60% or the value of IC50 was more than 200 nM.); and `Cc1nc(N[C@H]2CC[C@@H](NC(=O)c3ccc(F)c(F)c3)CC2)cc(N(C)C)n1` [compound 218, N-(cis-4-{[6-(dimethylamino)-2-methylpyrimidin-4-yl]amino}cyclohexyl)-3,4-difluorobenzamide], with 1 (Class 1: The value of percent of control at 10^−7 M was less than 40% or the value of IC50 was less than 50 nM.).
With `Cc1nc(N[C@H]2CC[C@@H](NCc3nn(-c4ccccc4)nc3C)CC2)cc(N(C)C)n1` [compound 376], the class was 3 (Class 3: The value of percent of control at 10^−7 M was more than 60% or the value of IC50 was more than 200 nM.).
For `Cc1nc(N[C@H]2CC[C@@H](NC(=O)N3CCOCC3)CC2)cc(N(C)C)n1` [compound 225], the class was 3 (Class 3: The value of percent of control at 10^−7 M was more than 60% or the value of IC50 was more than 200 nM.).
Turning to `Cc1nc(N[C@H]2CC[C@@H](NC(=O)Nc3ccc(Cl)cc3C)CC2)cc(N(C)C)n1` [compound 418, N-(4-chloro-2-methylphenyl)-N′-(cis-4-{[6-(dimethylaminio)-2-methylpyrimidin-4-yl]amino}cyclohexyl)urea], the class is reported as 3 (Class 3: The value of percent of control at 10^−7 M was more than 60% or the value of IC50 was more than 200 nM.).
The result for `Cc1nc(N[C@H]2CC[C@@H](NS(=O)(=O)c3ccc(-c4ccccc4)cc3)CC2)cc(N(C)C)n1` [compound 489] reads 3 (Class 3: The value of percent of control at 10^−7 M was more than 60% or the value of IC50 was more than 200 nM.); that for `Cc1nc(N[C@H]2CC[C@@H](NC(=O)Nc3c(Br)cc(C(C)C)cc3Br)CC2)cc(N(C)C)n1` [compound 423], 3 (Class 3: The value of percent of control at 10^−7 M was more than 60% or the value of IC50 was more than 200 nM.); that for `Cc1nc(N[C@H]2CC[C@@H](NCCOc3c(F)c(F)c(F)c(F)c3F)CC2)cc(N(C)C)n1` [compound 389], 3 (Class 3: The value of percent of control at 10^−7 M was more than 60% or the value of IC50 was more than 200 nM.).
For `Cc1nc(N[C@H]2CC[C@@H](NS(=O)(=O)c3ccc(Br)cc3OC(F)(F)F)CC2)cc(N(C)C)n1` [compound 501], the class is 3 (Class 3: The value of percent of control at 10^−7 M was more than 60% or the value of IC50 was more than 200 nM.).
The result for `Cc1nc(N[C@H]2CC[C@@H](NC(=O)Nc3c(C)noc3-c3ccccc3)CC2)cc(N(C)C)n1` [compound 433] reads 3 (Class 3: The value of percent of control at 10^−7 M was more than 60% or the value of IC50 was more than 200 nM.); that for `Cc1nc(N[C@H]2CC[C@@H](NC(=O)c3scc(S(=O)(=O)c4ccc(Cl)cc4)c3C)CC2)cc(N(C)C)n1` [compound 216], 3 (Class 3: The value of percent of control at 10^−7 M was more than 60% or the value of IC50 was more than 200 nM.); that for `Cc1nc(N[C@H]2CC[C@@H](NC(=O)C3C[C@H]3c3ccccc3)CC2)cc(N(C)C)n1` (stereo partly drawn) [compound 236], 3 (Class 3: The value of percent of control at 10^−7 M was more than 60% or the value of IC50 was more than 200 nM.).
Consider `Cc1nc(N[C@H]2CC[C@@H](NCc3ccc(F)c(Cl)c3)CC2)cc(N(C)C)n1` [compound 401], for which the class is on record as 3 (Class 3: The value of percent of control at 10^−7 M was more than 60% or the value of IC50 was more than 200 nM.).
In the case of `COc1ccc2c(CC(=O)N[C@H]3CC[C@@H](Nc4cc(N(C)C)nc(C)n4)CC3)cc(=O)oc2c1` [compound 291], the class is on record as 3 (Class 3: The value of percent of control at 10^−7 M was more than 60% or the value of IC50 was more than 200 nM.).
Then `Cc1nc(N[C@H]2CC[C@@H](NC(=O)Oc3ccc(Br)cc3)CC2)cc(N(C)C)n1` [compound 455, 4-bromophenyl (cis-4-{[6-(dimethylamino)-2-methylpyrimidin-4-yl]amino}cyclohexyl)carbamate], with 3 (Class 3: The value of percent of control at 10^−7 M was more than 60% or the value of IC50 was more than 200 nM.); and `Cc1nc(N[C@H]2CC[C@@H](NC(=O)/C=C/c3cccc(C(F)(F)F)c3)CC2)cc(N(C)C)n1` [compound 262], with 3 (Class 3: The value of percent of control at 10^−7 M was more than 60% or the value of IC50 was more than 200 nM.); and `Cc1nc(N[C@H]2CC[C@@H](NS(=O)(=O)c3cccn3-c3ncc(C(F)(F)F)cc3Cl)CC2)cc(N(C)C)n1` [compound 516], with 3 (Class 3: The value of percent of control at 10^−7 M was more than 60% or the value of IC50 was more than 200 nM.).
Turning to `Cc1nc(N[C@H]2CC[C@@H](NS(=O)(=O)Cc3cccc(C(F)(F)F)c3)CC2)cc(N(C)C)n1` [compound 472], the class is recorded as 3 (Class 3: The value of percent of control at 10^−7 M was more than 60% or the value of IC50 was more than 200 nM.).
The result for `Cc1nc(N[C@H]2CC[C@@H](NC(=O)NCc3ccc(F)cc3)CC2)cc(N(C)C)n1` [compound 413] reads 3 (Class 3: The value of percent of control at 10^−7 M was more than 60% or the value of IC50 was more than 200 nM.); that for `Cc1nc(N[C@H]2CC[C@@H](NC(=O)Cc3ccccc3)CC2)cc(N(C)C)n1` [compound 235], 3 (Class 3: The value of percent of control at 10^−7 M was more than 60% or the value of IC50 was more than 200 nM.).
With `Cc1nc(N[C@H]2CC[C@@H](NC(=S)Nc3c(Br)cc(Br)cc3Br)CC2)cc(N(C)C)n1` [compound 447, N-(cis-4-{[6-(dimethylamino)-2-methylpyrimidin-4-yl]amino}cyclohexyl)-N′-(2,4,6-tribromophenyl)thiourea], the class is on record as 1 (Class 1: The value of percent of control at 10^−7 M was less than 40% or the value of IC50 was less than 50 nM.).
The result for `Cc1nc(N[C@H]2CC[C@@H](NCCOc3ccccc3)CC2)cc(N(C)C)n1` [compound 381] reads 3 (Class 3: The value of percent of control at 10^−7 M was more than 60% or the value of IC50 was more than 200 nM.); that for `Cc1nc(N[C@H]2CC[C@@H](NC(=O)Cc3ccc(F)cc3)CC2)cc(N(C)C)n1` [compound 250], 3 (Class 3: The value of percent of control at 10^−7 M was more than 60% or the value of IC50 was more than 200 nM.).
The result for `Cc1nc(N[C@H]2CC[C@@H](NC(=O)CCCc3ccc4c(c3)OCCO4)CC2)cc(N(C)C)n1` [compound 341] reads 3 (Class 3: The value of percent of control at 10^−7 M was more than 60% or the value of IC50 was more than 200 nM.); that for `COC(=O)c1ccccc1S(=O)(=O)N[C@H]1CC[C@@H](Nc2cc(N(C)C)nc(C)n2)CC1` [compound 481], 3 (Class 3: The value of percent of control at 10^−7 M was more than 60% or the value of IC50 was more than 200 nM.).
Turning to `Cc1nc(N[C@H]2CC[C@@H](NCCOCc3ccccc3)CC2)cc(N(C)C)n1` [compound 359], the class is reported as 3 (Class 3: The value of percent of control at 10^−7 M was more than 60% or the value of IC50 was more than 200 nM.).
For the compound `CCc1cccc(C(C)C)c1NC(=O)N[C@H]1CC[C@@H](Nc2cc(N(C)C)nc(C)n2)CC1` [compound 419], the class is given as 3 (Class 3: The value of percent of control at 10^−7 M was more than 60% or the value of IC50 was more than 200 nM.).
The result for `COc1cc(NC(=S)N[C@H]2CC[C@@H](Nc3cc(N(C)C)nc(C)n3)CC2)cc(OC)c1OC` [compound 442, N-(cis-4-{[6-(dimethylamino)-2-methylpyrimidin-4-yl]amino}cyclohexyl)-N′-(3,4,5-trimethoxyphenyl)thiourea] reads 1 (Class 1: The value of percent of control at 10^−7 M was less than 40% or the value of IC50 was less than 50 nM.); that for `Cc1nc(N[C@H]2CC[C@@H](NC(=O)CNc3ccccc3)CC2)cc(N(C)C)n1` [compound 303], 3 (Class 3: The value of percent of control at 10^−7 M was more than 60% or the value of IC50 was more than 200 nM.).
Then `Cc1nc(N[C@H]2CC[C@@H](NC(=O)CCCCCCCCCCc3ccccc3)CC2)cc(N(C)C)n1` [compound 301], with 3 (Class 3: The value of percent of control at 10^−7 M was more than 60% or the value of IC50 was more than 200 nM.); and `Cc1nc(N[C@H]2CC[C@@H](NC(=O)C(C(=O)OCc3ccccc3)c3ccccc3)CC2)cc(N(C)C)n1` (relative stereo) [compound 321], with 3 (Class 3: The value of percent of control at 10^−7 M was more than 60% or the value of IC50 was more than 200 nM.).
Take `Cc1nc(N[C@H]2CC[C@@H](NC(=O)CC3CCCCC3)CC2)cc(N(C)C)n1` [compound 279]: the class was 3 (Class 3: The value of percent of control at 10^−7 M was more than 60% or the value of IC50 was more than 200 nM.).
Regarding `Cc1nc(N[C@H]2CC[C@@H](NCC3C[C@H]3c3ccccc3)CC2)cc(N(C)C)n1` (stereo partly drawn) [compound 383], the class is listed as 3 (Class 3: The value of percent of control at 10^−7 M was more than 60% or the value of IC50 was more than 200 nM.).
In the case of `Cc1nc(N[C@H]2CC[C@@H](NS(=O)(=O)c3ccc(Cl)c(Cl)c3)CC2)cc(N(C)C)n1` [compound 502], the class is recorded as 3 (Class 3: The value of percent of control at 10^−7 M was more than 60% or the value of IC50 was more than 200 nM.).
